Drawing on patent US9932324B2, “Substituted benzimidazolium compounds useful in the treatment of respiratory diseases” (Boehringer Ingelheim International GmbH, priority 2015, dated 2018), this text covers Papp A→B, Papp B→A and IC50 for 15 compounds.

Usually Papp A→B stands for how fast a substance crosses the layer from the apical side. As usually defined, the Papp B→A is the apparent permeability from the basolateral to the apical side of a cell layer. In general, IC50 refers to the midpoint of a concentration-inhibition curve. High values mean a need for much substance, low ones inhibition by little substance.

Data set [1] is described as follows: Permeability in CALU-3 cells. The class given is in vitro ADME. Conditions: human, CALU-3 monolayers, pH 7.4, 37° C., 10 μM compound; for Papp A→B at 90 min, 10 μM: apical-to-basal; for Papp B→A at 90 min, 10 μM: basal-to-apical. The protocol: Permeability in CALU-3 Cells:
Permeability measurements across polarized, confluent CALU-3 cell monolayers grown on permeable filter supports are used to provide information on the potential of a compound to pass the lung epithelium. Apparent permeability coefficients (Papp) of the compounds across the CALU-3 cell monolayers are measured (pH 7.4, 37° C.) in apical-to-basal (AB) and basal-to-apical (BA) transport direction.
CALU-3 cells (1-2×10^5 cells/1 cm^2 area) are seeded on filter inserts (Costar transwell polycarbonate filters, 0.4 μm pore size) and cultured (for 10-12 days DMEM) until tight monolayers are formed. Compounds of interest are dissolved in appropriate solvent (DMSO, 10 mM stock solution). Stock solutions are diluted with HTP-4 buffer (128.13 mM NaCl, 5.36 mM KCl, 1 mM MgSO4, 1.8 mM CaCl2, 4.17 mM NaHCO3, 1.19 mM Na2HPO4 x 7H2O, 0.41 mM NaH2PO4xH2O, 15 mM HEPES, 20 mM glucose, 0.25% BSA, pH 7.4) to prepare the transport solutions (10 μM compound, final DMSO <=0.5%). The transport solution (TL) is applied to the apical or basolateral donor side for measuring A-B or B-A permeability (3 filter replicates), respectively. The receiver side contains the same buffer as the donor side. After 30 min of accommodation, samples are collected at the start t0=0 min and at the end of the experiment tn=90 min from the donor and at 0, 30, 60, and 90 min also from the receiver chamber. Volume removed is […] by HTP-4 buffer. The compound concentration in the samples is measured by HPLC-MS/MS or scintillation counting. The permeability coefficient (Papp) and efflux ratio are calculated according to: Papp [cm/s]=(concentration receiver [nM]*volume receiver [mL]/time interval [sec])*(1/filter area)*(1/donor concentration [nM]).

Data set [2] concerns the target T1, ENaC (Epithelial Sodium Channel) in mouse kidney M-1 cells (Mus musculus, UniProt Q61180+Q9WU38+Q9WU39).
T1 construct: Mouse kidney M-1 cells were cultivated in DMEM containing 5% FCS and 5 μM dexamethasone; endogenous in cells; host or cells: mouse kidney M-1 cells
T1 sequence (Q61180 1-699): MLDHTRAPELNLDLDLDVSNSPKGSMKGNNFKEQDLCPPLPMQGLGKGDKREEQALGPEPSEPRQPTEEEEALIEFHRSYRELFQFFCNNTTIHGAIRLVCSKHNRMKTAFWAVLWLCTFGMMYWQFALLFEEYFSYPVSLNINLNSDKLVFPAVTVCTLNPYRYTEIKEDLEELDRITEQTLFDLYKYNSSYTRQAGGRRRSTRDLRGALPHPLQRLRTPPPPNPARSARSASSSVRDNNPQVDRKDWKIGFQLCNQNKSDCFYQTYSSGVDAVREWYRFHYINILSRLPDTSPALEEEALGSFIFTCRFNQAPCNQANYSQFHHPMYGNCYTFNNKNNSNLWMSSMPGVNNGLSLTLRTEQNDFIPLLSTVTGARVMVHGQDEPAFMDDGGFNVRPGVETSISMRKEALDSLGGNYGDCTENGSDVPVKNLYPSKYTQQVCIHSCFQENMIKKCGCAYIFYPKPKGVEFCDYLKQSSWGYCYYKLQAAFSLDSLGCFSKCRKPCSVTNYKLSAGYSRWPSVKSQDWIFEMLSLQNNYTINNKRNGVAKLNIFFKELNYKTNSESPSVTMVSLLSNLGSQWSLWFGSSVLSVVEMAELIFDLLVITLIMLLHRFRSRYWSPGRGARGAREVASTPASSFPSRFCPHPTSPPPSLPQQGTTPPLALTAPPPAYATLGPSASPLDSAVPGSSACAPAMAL
T1 sequence (Q9WU38 1-638): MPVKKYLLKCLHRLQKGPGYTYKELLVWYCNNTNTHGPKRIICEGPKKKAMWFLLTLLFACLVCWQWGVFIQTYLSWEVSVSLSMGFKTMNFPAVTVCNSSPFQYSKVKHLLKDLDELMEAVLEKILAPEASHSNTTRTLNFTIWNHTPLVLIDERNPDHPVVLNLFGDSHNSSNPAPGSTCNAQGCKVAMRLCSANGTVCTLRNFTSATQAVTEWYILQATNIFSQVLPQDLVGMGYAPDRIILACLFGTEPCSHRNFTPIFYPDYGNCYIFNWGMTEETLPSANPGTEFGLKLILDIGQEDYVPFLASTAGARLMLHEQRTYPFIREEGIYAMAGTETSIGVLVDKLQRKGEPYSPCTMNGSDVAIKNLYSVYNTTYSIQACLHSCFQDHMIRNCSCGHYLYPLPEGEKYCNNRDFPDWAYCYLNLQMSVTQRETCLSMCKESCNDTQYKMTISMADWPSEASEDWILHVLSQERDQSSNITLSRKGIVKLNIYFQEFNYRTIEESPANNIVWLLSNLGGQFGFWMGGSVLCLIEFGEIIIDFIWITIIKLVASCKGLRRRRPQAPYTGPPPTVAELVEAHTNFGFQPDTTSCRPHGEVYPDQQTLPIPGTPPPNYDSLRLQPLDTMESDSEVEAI
T1 sequence (Q9WU39 1-655): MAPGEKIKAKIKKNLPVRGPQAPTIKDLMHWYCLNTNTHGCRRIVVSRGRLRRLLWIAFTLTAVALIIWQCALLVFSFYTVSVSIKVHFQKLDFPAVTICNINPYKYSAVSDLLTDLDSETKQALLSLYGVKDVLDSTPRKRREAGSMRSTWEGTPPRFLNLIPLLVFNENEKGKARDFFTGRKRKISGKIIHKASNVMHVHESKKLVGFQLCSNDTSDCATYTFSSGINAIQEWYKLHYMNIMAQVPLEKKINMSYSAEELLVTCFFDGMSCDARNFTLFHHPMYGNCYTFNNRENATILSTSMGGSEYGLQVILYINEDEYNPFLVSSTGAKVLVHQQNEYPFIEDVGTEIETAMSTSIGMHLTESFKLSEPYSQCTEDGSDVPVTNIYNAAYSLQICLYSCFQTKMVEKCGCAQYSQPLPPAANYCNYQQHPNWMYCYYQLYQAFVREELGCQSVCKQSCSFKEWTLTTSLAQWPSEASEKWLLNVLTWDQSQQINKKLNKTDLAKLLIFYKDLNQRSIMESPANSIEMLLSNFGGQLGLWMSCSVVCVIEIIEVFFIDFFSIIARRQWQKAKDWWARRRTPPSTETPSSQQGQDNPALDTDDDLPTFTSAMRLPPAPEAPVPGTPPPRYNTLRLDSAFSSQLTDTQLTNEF
Description: Ussing Chamber assay (short circuit current, amiloride sensitive I_SC). The class given is cell-based. Conditions: apical administration, 37° C. The protocol:
The IC50 values of the example compounds given above were determined in the Ussing Chamber assay.
Ussing Chamber: Mouse kidney M-1 cells were cultivated in DMEM containing 5% FCS and 5 μM dexamethasone for 10 to 12 days on polyester transwell filters. Filters were inserted into a teflon-coated well-plate which fit into the ussing chamber system. Prior to measurement the medium of M-1 cells was replaced with Caco-2 transport buffer (Invitrogen, Germany). During measurements, the Ussing chamber temperature was kept at 37° C. Short circuit currents (I_sc) were measured in the voltage-clamp mode with the software package Lab View for data acquisition and analysis. The transepithelial electrical resistance (TEER) was determined by the application of voltage steps of ±5 mV every 5 sec. Compounds were administered at a final concentration of 3 μM or at increasing concentrations (1-3-10 μM) to the apical solution. At the end of each experiment the amiloride sensitive I_SC was measured by adding 3 μM amiloride to the apical compartment. Results are expressed as inhibition in percent of the amiloride effect or as IC50.

Molecules are shown by their SMILES.

In data set [1], `CCn1c(CNC(=O)c2nc(Cl)c(N)nc2N)[n+](CC)c2c(C(=O)N3CCNCC3)cccc21.[Cl-]` [Example 4.02] registered a Papp A→B at 90 min, 10 μM of 0.2 ×10⁻⁶ cm/s and a Papp B→A at 90 min, 10 μM of 0.1 ×10⁻⁶ cm/s. For the same compound, the half-inhibitory concentration (IC50) in data set [2] was 3 nM. Taken in the same sequence, the figures for `CCn1c(CNC(=O)c2nc(Cl)c(N)nc2N)[n+](CC)c2c(C(=O)NCCCN)cccc21.Cl.[Cl-]` [Example 6.01] were 0.1 ×10⁻⁶ cm/s, 0.09 ×10⁻⁶ cm/s and 5 nM.

For `CC[n+]1c(CNC(=O)c2nc(Cl)c(N)nc2N)n(C[C@@H]2CCCO2)c2cccc(OCC(=O)N3C[C@H](O)[C@@H](O)C3)c21` [Example 1.01], half-maximal inhibition in data set [2] (IC50) required 36 nM.

In data set [1], `CC[n+]1c(CNC(=O)c2nc(Cl)c(N)nc2N)n(C[C@@H]2CCCO2)c2cccc(OCC(=O)NC3CCNCC3)c21.O=C(O)C(F)(F)F.O=C([O-])C(F)(F)F` [Example 4.01] had a Papp A→B at 90 min, 10 μM of 0.3 ×10⁻⁶ cm/s and an apparent permeability from basolateral to apical (Papp B→A) at 90 min, 10 μM of 0.3 ×10⁻⁶ cm/s. In addition, it took 1 nM to reach half-maximal inhibition in data set [2] (IC50). In the case of `CC[n+]1c(CNC(=O)c2nc(Cl)c(N)nc2N)n(CCOCCO)c2cccc(OC(CO)CO)c21` [Example 5.01], in data set [2], inhibition was half-maximal at 16 nM (IC50). That is a double-digit nanomolar value. Same read-out and setting: the same measure for `CC[n+]1c(CNC(=O)c2nc(Cl)c(C)nc2N)n(C[C@@H]2CCCO2)c2cccc(OCC(=O)NC3CCN(C(=O)OC(C)(C)C)CC3)c21` [Example 1.07]: 2 nM.

Turning to `CCn1c(CNC(=O)c2nc(Cl)c(N)nc2N)[n+](CC)c2c(C(=O)NCCN(C)C)cccc21.[Cl-]` [Example 3.05], in data set [1], the Papp A→B at 90 min, 10 μM came to 0.04 ×10⁻⁶ cm/s and the Papp B→A at 90 min, 10 μM was 0.06 ×10⁻⁶ cm/s. In data set [2], the IC50 was 6 nM. `CCn1c(CNC(=O)c2nc(Cl)c(N)nc2N)[n+](CC)c2c(C(=O)N(C)Cc3nc(C)ccc3O)cccc21` [Example 3.01] came in with an IC50 in data set [2] of 2 nM.

As for `CC[n+]1c(CNC(=O)c2nc(Cl)c(N)nc2N)n(C[C@@H]2CCCO2)c2cccc(OCC(=O)N(C)Cc3nc(C)ccc3[O-])c21` [Example 1.03], in data set [1], the apical-to-basolateral permeability (Papp A→B) at 90 min, 10 μM was 0.3 ×10⁻⁶ cm/s and the Papp B→A at 90 min, 10 μM was found to be 0.5 ×10⁻⁶ cm/s. For the same compound, in data set [2], the IC50 was determined as 31 nM. `CCn1c(CNC(=O)c2nc(Cl)c(N)nc2N)[n+](CC)c2c(C(=O)NCCCNC(=O)OC(C)(C)C)cccc21` [Example 3.03] yielded an IC50 in data set [2] of 5 nM. The same measure, in the same setting: with `CC[n+]1c(CNC(=O)c2nc(Cl)c(N)nc2N)n(CCOCCO)c2cccc(OCC(=O)NC3CCNCC3)c21` [Example 7.01] the figure was 11 nM; with `CCn1c(CNC(=O)c2nc(Cl)c(N)nc2N)[n+](CC)c2c(C(=O)NC3CCN(C(=O)OC(C)(C)C)CC3)cccc21` [Example 3.02], 3 nM; with `CCn1c(CNC(=O)c2nc(Cl)c(N)nc2N)[n+](CC)c2c(C(=O)N3CCN(C(=O)OC(C)(C)C)CC3)cccc21` [Example 3.04], 3 nM.

In data set [1], `CCn1c(CNC(=O)c2nc(Cl)c(N)nc2N)[n+](CC)c2c(C(=O)NC3CCNCC3)cccc21.[Cl-]` [Example 4.03] yielded a Papp A→B at 90 min, 10 μM of 0.08 ×10⁻⁶ cm/s and an apparent permeability from basolateral to apical (Papp B→A) at 90 min, 10 μM of 0.1 ×10⁻⁶ cm/s. The compound also registered a 50% inhibitory concentration (IC50) in data set [2] of 5 nM.

For the compound `CC[n+]1c(CNC(=O)c2nc(Br)c(N)nc2N)n(C[C@@H]2CCCO2)c2cccc(OCC(=O)N3C[C@H](O)[C@@H](O)C3)c21.O=C([O-])C(F)(F)F` [Example 2.01], in data set [1], the Papp A→B at 90 min, 10 μM amounted to 0.2 ×10⁻⁶ cm/s and the Papp B→A at 90 min, 10 μM stood at 0.2 ×10⁻⁶ cm/s. Besides, it took 24 nM to reach half-maximal inhibition in data set [2] (IC50).
